Experimental data taken from publication PMC8539251, “Peimine, an Anti-Inflammatory Compound from Chinese Herbal Extracts, Modulates Muscle-Type Nicotinic Receptors” (International Journal of Molecular Sciences, 2021).
pEC50, pIC50: −log10 of the molar value.

Legend:
[1] = target: T1, muscle-type nicotinic acetylcholine receptor (nAChR) (Torpedo marmorata, UniProt P02711+Q6S3H8+Q6S3H9+Q6S3I0); test: two-electrode voltage clamp in Xenopus oocytes, agonist concentration-response; assay type: cell-based
T1 construct: gene CHRNA1; purified native nAChR reconstituted in asolectin lipids, microtransplanted to Xenopus oocytes; with β1, γ and δ nAChR subunits (heteropentamer 2α1, β1, δ, γ)
T1 sequence (P02711 25-461): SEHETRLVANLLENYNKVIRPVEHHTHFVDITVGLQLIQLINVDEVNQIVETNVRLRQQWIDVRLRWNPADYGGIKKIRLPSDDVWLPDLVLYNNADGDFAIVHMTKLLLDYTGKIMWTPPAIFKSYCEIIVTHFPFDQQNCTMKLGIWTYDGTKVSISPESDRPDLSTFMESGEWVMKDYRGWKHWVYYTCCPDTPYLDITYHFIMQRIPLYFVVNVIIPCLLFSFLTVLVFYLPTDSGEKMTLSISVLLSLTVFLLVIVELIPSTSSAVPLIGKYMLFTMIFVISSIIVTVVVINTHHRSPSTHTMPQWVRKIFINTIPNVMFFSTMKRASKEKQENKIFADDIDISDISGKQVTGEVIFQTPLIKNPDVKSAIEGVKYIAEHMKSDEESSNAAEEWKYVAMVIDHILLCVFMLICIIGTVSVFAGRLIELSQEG
T1 sequence (Q6S3I0 25-493): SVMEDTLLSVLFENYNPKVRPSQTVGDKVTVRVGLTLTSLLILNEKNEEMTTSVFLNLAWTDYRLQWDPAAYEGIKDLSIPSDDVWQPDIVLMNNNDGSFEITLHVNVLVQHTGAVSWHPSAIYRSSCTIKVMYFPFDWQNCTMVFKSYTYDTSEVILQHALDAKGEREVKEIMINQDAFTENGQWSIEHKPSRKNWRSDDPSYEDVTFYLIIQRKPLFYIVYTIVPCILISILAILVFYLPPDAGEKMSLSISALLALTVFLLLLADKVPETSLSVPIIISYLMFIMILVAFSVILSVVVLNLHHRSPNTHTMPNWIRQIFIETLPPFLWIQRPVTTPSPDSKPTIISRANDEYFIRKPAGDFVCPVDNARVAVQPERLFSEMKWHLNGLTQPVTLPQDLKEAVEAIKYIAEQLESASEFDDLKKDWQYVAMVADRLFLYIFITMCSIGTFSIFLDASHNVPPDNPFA
T1 sequence (Q6S3H9 18-505): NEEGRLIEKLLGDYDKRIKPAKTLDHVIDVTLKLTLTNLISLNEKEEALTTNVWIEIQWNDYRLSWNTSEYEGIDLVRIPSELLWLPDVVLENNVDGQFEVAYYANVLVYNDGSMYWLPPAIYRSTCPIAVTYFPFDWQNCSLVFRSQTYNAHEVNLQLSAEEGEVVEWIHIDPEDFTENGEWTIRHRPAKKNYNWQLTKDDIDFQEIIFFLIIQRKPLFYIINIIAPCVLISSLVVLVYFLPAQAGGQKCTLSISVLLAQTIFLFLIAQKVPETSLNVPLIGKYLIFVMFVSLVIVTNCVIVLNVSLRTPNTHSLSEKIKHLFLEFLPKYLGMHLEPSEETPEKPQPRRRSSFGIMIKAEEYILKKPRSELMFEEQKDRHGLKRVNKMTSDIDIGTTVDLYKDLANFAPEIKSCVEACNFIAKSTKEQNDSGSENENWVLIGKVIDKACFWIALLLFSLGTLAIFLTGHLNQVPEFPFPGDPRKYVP
T1 sequence (Q6S3H8 22-522): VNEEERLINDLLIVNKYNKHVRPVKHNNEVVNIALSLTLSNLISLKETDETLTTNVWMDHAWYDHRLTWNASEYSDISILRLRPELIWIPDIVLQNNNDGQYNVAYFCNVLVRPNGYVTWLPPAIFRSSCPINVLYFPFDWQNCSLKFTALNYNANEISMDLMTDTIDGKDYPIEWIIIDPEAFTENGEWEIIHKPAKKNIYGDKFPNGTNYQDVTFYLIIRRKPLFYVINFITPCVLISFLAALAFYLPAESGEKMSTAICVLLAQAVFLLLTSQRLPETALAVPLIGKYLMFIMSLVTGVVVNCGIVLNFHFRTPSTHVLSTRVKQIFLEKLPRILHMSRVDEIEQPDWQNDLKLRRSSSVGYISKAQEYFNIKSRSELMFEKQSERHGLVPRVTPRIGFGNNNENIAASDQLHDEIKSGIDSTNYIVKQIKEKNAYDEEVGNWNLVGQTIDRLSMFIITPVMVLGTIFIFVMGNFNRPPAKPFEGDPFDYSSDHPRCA

[2] = target: T1, muscle-type nicotinic acetylcholine receptor (nAChR); test: two-electrode voltage clamp in Xenopus oocytes, inhibition of […] ACh-elicited currents (peak; steady-state IC50 […]); assay type: cell-based

Row | SMILES | pEC50 [1] | pIC50 [2]
1 | CC(=O)OCC[N+](C)(C)C [ACh, acetylcholine] | 4.51 | 
2 | C[C@H]1CC[C@@H]2N(C1)C[C@H]1[C@@H]3C[C@H]4[C@@H](C[C@H](O)[C@H]5C[C@@H](O)CC[C@@]54C)[C@@H]3CC[C@@H]1[C@]2(C)O [Pm, Peimine] |  | 5.54
